Paper PMC7970121, “Combination With Tomatidine Improves the Potency of Posaconazole Against Trypanosoma cruzi” (Frontiers in Cellular and Infection Microbiology, 2021)
Structures can show the parent of a compound that is named as a salt. Where two headings read alike, the source gives them in different places.

What was measured:
[1] = system: Trypanosoma cruzi epimastigotes (STIB 980 strain); assay: Activity on T. cruzi epimastigotes (resazurin, 72 h); format: cell-based
Procedure: (§1) L6 cells derived from rat skeletal myoblast (ATCC CRL-1458) were used as host cells for T. cruzi using trypomastigotes of Tulahuen C2C4 strain (DTU VI) expressing the β-galactosidase gene (LacZ) ([Buckner et al., 1996]). The cultures were sustained in RPMI-1640 supplemented with 10% inactivated fetal bovine serum (FBS) and […] at 5% CO2 and 37°C. Epimastigote T. cruzi (STIB 980 strain, DTU TcI) were cultivated at 28°C in liver infusion tryptose (LIT) medium supplemented with hemin (2 μg/ml) and 10% FBS and were used in log phase of growth. Bloodstream trypomastigotes (Y strain, DTU II) were isolated from Swiss Webster mice infected at the peak of parasitemia (≥ 2.5 × 10^6/ml), as reported ([Meirelles et al., 1986]).
Epimastigotes (10^7 parasites/ml) were incubated for 72 h at 28°C with serially diluted compound concentrations (eleven 1:3 dilutions) in supplemented LIT medium. Parasite viability and motility were evaluated by direct observation by light microscopy and fluorometric assays performed with resazurin (12.5 mg resazurin dissolved in 100 ml distilled water). After 2–4 h of incubation with resazurin solution, plates were read in Spectramax Gemini XS microplate fluorometer (Molecular Devices Cooperation, USA) using wavelengths of 536 nm (excitation) and 588 nm (emission) ([Räz et al., 1997]). Growth was expressed as percentage of the values of solvent-treated controls. The graphics program Softmax Pro (Molecular Devices) was used to construct dose–response curves and calculate EC50 (half maximal inhibitory concentration) values. Bz was used as reference drug.

[2] = Cytotoxicity against L6 cells (resazurin, 72 h); format: cell-based, rat
Procedure: Rat skeletal myoblasts (L6 cell lines) were seeded in 96-well plates (4 × 10^4 cells/well) in 100 μl RPMI 1640 medium supplemented with 10% fetal bovine serum (FBS) and 2 mM L-glutamine. After 24 h incubation the medium was replaced with 100 μl of fresh medium with or without a serial dilution of compound concentrations (eleven three-fold dilution steps). After 72 h of compound exposure, fluorescent dye resazurin (10 μl, 12.5 mg resazurin dissolved in 100 ml water) was added for 2 h and the readings performed at Spectramax Gemini XS microplate fluorometer (Molecular Devices Cooperation, USA), with excitation wavelength of 536 nm and an emission wavelength of 588 nm. Growth was expressed as percentage of the values of solvent-treated controls. The graphics program Softmax Pro (Molecular Devices) was used to construct dose–response curves and calculate EC50 values. Podophyllotoxin (a microtubule destabilizing agent) was used as positive control.

[3] = system: Trypanosoma cruzi intracellular amastigotes (Tulahuen strain in rat L6 myoblasts); assay: Activity on T. cruzi intracellular amastigotes in L6 cells (LacZ/CPRG, 96 h); format: cell-based; details: for EC50: read-out: Amastigotes (mean ± SD) EC50; for EC90: read-out: Amastigotes (mean ± SD) EC90
Procedure: as §1
Rat skeletal myoblasts (L6 cell lines) were seeded in 96-well plates (10^4 cells/well) in 100 μl RPMI 1640 medium supplemented with 10% fetal bovine serum (FBS) and 2 mM L-glutamine. The medium was removed after 24 h incubation and replaced by 100 μl of fresh medium containing 10^5 LacZ trypomastigotes (Tulahuen DTU VI). After 48 h, the medium was again removed and replaced with or without a serial of compound concentrations (eleven three-fold dilution steps). After 96 h of compound exposure, CPRG/Nonidet (50 μl) substrate was added and the reading performed after 2–6 h at 540 nm in Versamax microplate reader (Molecular Devices Cooperation, USA). Growth was expressed as percentage of the values of solvent-treated controls. The graphics program Softmax Pro (Molecular Devices) was used to construct dose–response curves and calculate EC50 values. Bz was used as reference drug.

[4] = STIB980, STIB 980 strain, 72 h, n = 3, read-out: Epimastigotes (mean ± SD) EC50
[5] = STIB980, STIB 980 strain, 72 h, n = 3, read-out: Epimastigotes (mean ± SD) EC90
[6] = EC50 on mammalian L6 cells versus EC50 on intracellular amastigotes
[7] = Trypanosoma cruzi, TULAHUEN, L6, 96 h, Tulahuen strain in rat L6 myoblasts, 96 h, n = 3
[8] = Trypanosoma cruzi, Tulahuen strain in rat L6 myoblasts, 96 h, n = 3
[9] = rat L6 myoblasts, 72 h, n = 3, read-out: L6 cells (mean ± SD) EC50
[10] = Tulahuen strain in rat L6 myoblasts, 96 h, n = 3
[11] = Trypanosoma cruzi, TULAHUEN, L6, 96 h
[12] = L6 rat skeletal myoblast cells, rat L6 myoblasts, 72 h, n = 3, read-out: L6 cells (mean ± SD) EC50

SMILES: CCCCCCCCc1ccc(CCC(N)(CO)COP(=O)(O)O)cc1 (centres unmarked) [FTY720 Phosphate, FTY720-P]
- EC50 [1, 4]: > 258 µM
- EC90 [1, 5]: > 258 µM
- EC50 at 72 h ([2]; rat): 127 ± 22 µM
- SI (Selectivity Index) [3, 6]: 1.4
- EC50 [3, 7]: 93.8 ± 3.3 µM
- EC90 [3, 8]: 168 ± 25 µM

SMILES: CCCCCCC(=O)CCCCCC/C=C/C[C@@H](O)[C@H](O)[C@@](N)(CO)C(=O)O [Myriocin]
- EC50 [1, 4]: > 249 µM
- EC90 [1, 5]: > 249 µM
- EC50 at 72 h [2, 9]: > 249 µM
- SI (Selectivity Index) [3, 6]: >1.9
- EC50 [3, 7]: 130 ± 34 µM
- EC90 [3, 8]: 231 ± 25 µM

SMILES: O=C(Cn1ccnc1[N+](=O)[O-])NCc1ccccc1 [Benznidazole]
- EC50 [1, 4]: 13.9 ± 2.2 µM
- EC90 [1, 5]: 101 ± 18 µM
- EC50 at 72 h ([2]; rat): > 384 µM
- SI (Selectivity Index) [3, 6]: >172
- EC50 [3, 7]: 2.2 µM
- EC90 [3, 8]: 6.61 ± 2.5 µM
- EC50 [3, 10]: 2.22 ± 0.98 µM

SMILES: CN(C)CCC=C1c2ccccc2CCc2ccccc21 [Amitriptyline (hydrochloride), Amitriptyline]
- EC50 [1, 4]: 59.9 ± 5.4 µM
- EC90 [1, 5]: 96.8 ± 3.3 µM
- EC50 at 72 h [2, 9]: 17.2 ± 1.2 µM
- SI (Selectivity Index) [3, 6]: 1.4
- EC50 [3, 7]: 12.2 ± 3.6 µM
- EC90 [3, 8]: 20.9 ± 3 µM

SMILES: CCCCC(C)C(OC(=O)CC(CC(=O)O)C(=O)O)C(CC(C)CC(O)CCCCC(O)CC(O)C(C)N)OC(=O)CC(CC(=O)O)C(=O)O (centres unmarked) [Fumonisin B1]
- EC50 ([1]; STIB980, 72 h, read-out: Epimastigotes (mean ± SD) EC50): > 92 µM
- EC90 ([1]; STIB980, 72 h, read-out: Epimastigotes (mean ± SD) EC90): > 92 µM
- EC50 at 72 h [2, 9]: > 92 µM
- SI (Selectivity Index) [3, 6]: >1.8
- EC50 [3, 11]: 50.8 ± 5.7 µM
- EC90 [3, 11]: 84 ± 9.1 µM

SMILES: NC1CN2CCC1CC2 (centres unmarked) [3-Amino quinuclidine dihydrochloride, 3-Amino quinuclidine]
- EC50 [1, 4]: > 502 µM
- EC90 [1, 5]: > 502 µM
- EC50 at 72 h ([2]; rat): > 502 µM
- SI (Selectivity Index) [3, 6]: >1.8
- EC50 [3, 7]: 268 ± 10 µM
- EC90 [3, 8]: 485 ± 28 µM

SMILES: CCCCCCCCc1ccc(CCC(N)(CO)CO)cc1 [FTY720]
- EC50 [1, 4]: 7.55 ± 0.4 µM
- EC90 [1, 5]: 11.6 ± 0.3 µM
- EC50 at 72 h ([2]; rat): 0.39 ± 0.1 µM
- SI (Selectivity Index) [3, 6]: 0.5
- EC50 [3, 7]: ≤ 1 µM
- EC90 [3, 8]: 1.84 ± 1.3 µM
- EC50 [3, 10]: 0.81 ± 0.5 µM

SMILES: O=C(/C=C/c1ccc(/C=C/C(=O)Nc2ccc(C3=NCCN3)cc2)cc1)Nc1ccc(C2=NCCN2)cc1 [GW4869 (hydrochloride hydrate), GW4869]
- EC50 [1, 4]: > 173 µM
- EC90 [1, 5]: > 173 µM
- EC50 at 72 h [2, 9]: > 173 µM
- SI (Selectivity Index) [3, 6]: >1.7
- EC50 [3, 7]: 106 ± 44 µM
- EC90 [3, 8]: > 173 µM

SMILES: OCC1C(O)C(O)C(O)CN1CCCCCOCC12CC3CC(CC(C3)C1)C2 (centres unmarked) [AMP-Deoxy nojirimycin, AMP-Deoxynojirimycin]
- EC50 [1, 4]: 158 ± 5.9 µM
- EC90 [1, 5]: 237 ± 2 µM
- EC50 at 72 h ([2]; rat): 40.4 ± 10.9 µM
- SI (Selectivity Index) [3, 6]: 1.2
- EC50 [3, 7]: 34.8 ± 15.1 µM
- EC90 [3, 8]: 66.6 ± 15.4 µM

SMILES: C=CCN(C)CCCCCCOc1ccc(C(=O)c2ccc(Br)cc2)c(F)c1 [Ro48-8071]
- EC50 [1, 4]: 11.6 ± 6.1 µM
- EC90 [1, 5]: 29.4 ± 16.2 µM
- EC50 at 72 h ([2]; rat): 5.7 ± 2.4 µM
- SI (Selectivity Index) [3, 6]: 12
- EC90 [3, 8]: 2.5 ± 1.9 µM
- EC50 ([3]; Tulahuen strain in rat L6 myoblasts, 96 h, n = 3, listed as RO48-8071): ≤ 1 µM
- EC50 [3, 10]: 0.47 ± 0.09 µM

SMILES: S=C(S)OC1CC2CC1C1CCCC21 (centres unmarked) [D609 (potassium salt), D609]
- EC50 [1, 4]: 154 ± 32 µM
- EC90 [1, 5]: > 375 µM
- EC50 at 72 h [2, 12]: 247 ± 20 µM
- SI (Selectivity Index) [3]: 2.5
- EC50 [3, 7]: 99.4 ± 17.6 µM
- EC90 [3, 8]: 198 ± 32 µM

SMILES: CCCCCCCCCC(=O)NC(CN1CCOCC1)C(O)c1ccccc1 (centres unmarked) [PDMP (hydrochloride), PDMP]
- EC50 [1, 4]: 47.9 ± 9.4 µM
- EC90 [1, 5]: 88.7 ± 18 µM
- EC50 at 72 h [2, 12]: 33.5 ± 3.1 µM
- SI (Selectivity Index) [3]: 2.7
- EC50 [3, 7]: 12.5 ± 2.9 µM
- EC90 [3, 8]: 24.6 ± 9 µM

SMILES: Cc1cc2ncc(NC(=O)Nc3ccc(F)cc3F)c(-c3ccccc3Cl)c2cc1C [TMP-153]
- EC50 [1, 4]: 106 ± 27 µM
- EC90 [1, 5]: > 228 µM
- EC50 at 72 h ([2]; rat): 0.12 ± 0.03 µM
- SI (Selectivity Index) [3, 6]: 1.4
- EC90 [3, 8]: 3.9 ± 2.1 µM

SMILES: C1CN2CCC1CC2 [Quinuclidine hydrochloride, Quinuclidine]
- EC50 [1, 4]: > 677 µM
- EC90 [1, 5]: > 677 µM
- EC50 at 72 h [2, 12]: > 677 µM
- SI (Selectivity Index) [3]: >1.4
- EC50 [3, 7]: 478 ± 174 µM
- EC90 [3, 8]: > 677 µM

SMILES: CC(C)(Oc1ccc(CCNC(=O)c2ccc(Cl)cc2)cc1)C(=O)O [Bezafibrate]
- EC50 [1, 4]: > 276 µM
- EC90 [1, 5]: > 276 µM
- EC50 at 72 h [2, 12]: > 276 µM
- SI (Selectivity Index) [3]: >2.1
- EC50 [3, 7]: 132 ± 38.6 µM
- EC90 [3, 8]: 226 ± 65 µM
